Values of other authors, collected in US20200078478A1, “Structural molecule of peptide derivative for PSMA-targeting radiotherapy diagnosis and treatment” (priority 2018, published 2020).

Conditions: Lu-177 labeled, clinical treatment

O=C(O)CC[C@H](NC(=O)N[C@@H](CCCCNC(=O)[C@H](Cc1ccc2ccccc2c1)NC(=O)[C@H]1CC[C@H](CNC(=O)CN2CCN(CC(=O)O)CCN(CC(=O)O)CCN(CC(=O)O)CC2)CC1)C(=O)O)C(=O)O [PSMA-617]
half-life: 10.8 h
